Test results as given in patent US20230248741A1, “Compositions and Methods for Lowering Triglycerides in a Subject with Reduced Kidney Function and Diabetes Mellitus” (Amarin Pharmaceuticals Ireland Limited, priority 2018, published 2023).

Experiment: Essential fatty acids in plasma and RBC by gas chromatography, 6-week AAMI study
Assay type: in vivo, human
Protocol: Blood samples (10 mL) were collected at Visit 1 (screening) and at Visits 4, 5, and 6. Analysis was performed by MSR Lipid Analysis, Scottish Crop Research Institute, Dundee, UK. The screening sample acted as baseline for the EFA measurements. Lipid was extracted from plasma, serum, and RBC suspensions and converted into fatty acid methyl esters which were analyzed by gas chromatography to give fatty acid profiles as micrograms fatty acid per gram of sample (mFA/g) and normalized area percent.
RBC and plasma EFA data were collected at baseline, Day 14, 28, and 42 and summarized by visit for each treatment group. Change from baseline and percent change from baseline were also summarized. ANCOVA comparison of E-EPA dose groups and E-EPA versus placebo was performed.
Notable changes for these parameters occurred in the E-EPA treatment groups at Days 14, 28, and 42 compared to placebo.

CC/C=C\C/C=C\C/C=C\C/C=C\C/C=C\CCCC(=O)OCC [E-EPA, ethyl eicosapentaenoate]
DGLA Plasma Mean change from Baseline (2 g daily, Day 28): -16.2 µg/g | DGLA RBC Mean change from Baseline (2 g daily, Day 28): -4.5 µg/g | DHA Plasma Mean change from Baseline (2 g daily, Day 28): -8.1 µg/g | DHA RBC Mean change from Baseline (2 g daily, Day 28): -6.2 µg/g | DPAn-3 Plasma Mean change from Baseline (2 g daily, Day 28): 19.4 µg/g | DPAn-3 RBC Mean change from Baseline (2 g daily, Day 28): 9.4 µg/g | AA Plasma Mean change from Baseline (2 g daily, Day 42): -27.3 µg/g | AA RBC Mean change from Baseline (2 g daily, Day 42): -18.8 µg/g | DGLA Plasma Mean change from Baseline (2 g daily, Day 42): -17.3 µg/g | DGLA RBC Mean change from Baseline (2 g daily, Day 42): -5.3 µg/g | DHA Plasma Mean change from Baseline (2 g daily, Day 42): -6.0 µg/g | DHA RBC Mean change from Baseline (2 g daily, Day 42): -6.3 µg/g | DPAn-3 Plasma Mean change from Baseline (2 g daily, Day 42): 19.3 µg/g | DPAn-3 RBC Mean change from Baseline (2 g daily, Day 42): 13.2 µg/g | AA Plasma Baseline Mean (2 g daily, baseline): 227.3 µg/g | AA RBC Baseline Mean (2 g daily, baseline): 172.8 µg/g | DGLA Plasma Baseline Mean (2 g daily, baseline): 53.5 µg/g | DGLA RBC Baseline Mean (2 g daily, baseline): 23.0 µg/g | DHA Plasma Baseline Mean (2 g daily, baseline): 75.1 µg/g | DHA RBC Baseline Mean (2 g daily, baseline): 64.8 µg/g | DPAn-3 Plasma Baseline Mean (2 g daily, baseline): 19.7 µg/g | DPAn-3 RBC Baseline Mean (2 g daily, baseline): 33.2 µg/g | AA Plasma LS Mean, 1 or 2 g versus 4 g (2 g versus 4 g): 15.6 µg/g | AA RBC LS Mean, 1 or 2 g versus 4 g (2 g versus 4 g): 9.8 µg/g | DGLA Plasma LS Mean, 1 or 2 g versus 4 g (2 g versus 4 g): 2.5 µg/g | DGLA RBC LS Mean, 1 or 2 g versus 4 g (2 g versus 4 g): 1.5 µg/g | DHA Plasma LS Mean, 1 or 2 g versus 4 g (2 g versus 4 g): 1.5 µg/g | DHA RBC LS Mean, 1 or 2 g versus 4 g (2 g versus 4 g): 1.0 µg/g | DPAn-3 Plasma LS Mean, 1 or 2 g versus 4 g (2 g versus 4 g): -9.5 µg/g | DPAn-3 RBC LS Mean, 1 or 2 g versus 4 g (2 g versus 4 g): -2.5 µg/g | AA Plasma Mean (SD) change from Baseline (4 g daily, Day 14): −27.2 (28.89) μg/g | AA RBC Mean (SD) change from Baseline (4 g daily, Day 14): −15.7 (26.76) μg/g | DGLA Plasma Mean change from Baseline (4 g daily, Day 14): -22.9 µg/g | DGLA RBC Mean change from Baseline (4 g daily, Day 14): -5.3 µg/g | DHA Plasma Mean change from Baseline (4 g daily, Day 14): -10.3 µg/g | DHA RBC Mean change from Baseline (4 g daily, Day 14): -6.9 µg/g | DPAn-3 Plasma Mean change from Baseline (4 g daily, Day 14): 24.5 µg/g | DPAn-3 RBC Mean change from Baseline (4 g daily, Day 14): 5.4 µg/g | AA Plasma Mean (SD) change from Baseline (4 g daily, Day 28): −43.7 (32.24) μg/g | AA RBC Mean (SD) change from Baseline (4 g daily, Day 28): −22.8 (29.56) μg/g | DGLA Plasma Mean change from Baseline (4 g daily, Day 28): -24.2 µg/g | DGLA RBC Mean change from Baseline (4 g daily, Day 28): -7.1 µg/g | DHA Plasma Mean change from Baseline (4 g daily, Day 28): -13.5 µg/g | DHA RBC Mean change from Baseline (4 g daily, Day 28): -8.7 µg/g | DPAn-3 Plasma Mean change from Baseline (4 g daily, Day 28): 29.7 µg/g | DPAn-3 RBC Mean change from Baseline (4 g daily, Day 28): 12.4 µg/g | AA Plasma Mean (SD) change from Baseline (4 g daily, Day 42): −48.3 (22.20) μg/g | AA RBC Mean (SD) change from Baseline (4 g daily, Day 42): −34.4 (31.44) μg/g | DGLA Plasma Mean change from Baseline (4 g daily, Day 42): -22.5 µg/g | DGLA RBC Mean change from Baseline (4 g daily, Day 42): -8.0 µg/g | DHA Plasma Mean change from Baseline (4 g daily, Day 42): -13.8 µg/g | DHA RBC Mean change from Baseline (4 g daily, Day 42): -13.8 µg/g | DPAn-3 Plasma Mean change from Baseline (4 g daily, Day 42): 32.0 µg/g | DPAn-3 RBC Mean change from Baseline (4 g daily, Day 42): 16.2 µg/g | AA Plasma Baseline Mean (SD) (4 g daily, baseline): 220.9 (42.80) μg/g | AA RBC Baseline Mean (SD) (4 g daily, baseline): 171.0 (25.17) μg/g | DGLA Plasma Baseline Mean (4 g daily, baseline): 57.1 µg/g | DGLA RBC Baseline Mean (4 g daily, baseline): 24.0 µg/g | DHA Plasma Baseline Mean (4 g daily, baseline): 78.8 µg/g | DHA RBC Baseline Mean (4 g daily, baseline): 68.3 µg/g | DPAn-3 Plasma Baseline Mean (4 g daily, baseline): 21.7 µg/g | DPAn-3 RBC Baseline Mean (4 g daily, baseline): 34.5 µg/g
